Source: PMC6222798, “A Novel Class of Tyrosyl-DNA Phosphodiesterase 1 Inhibitors That Contains the Octahydro-2H-chromen-4-ol Scaffold” (Molecules : A Journal of Synthetic Chemistry and Natural …, 2018)
Read-outs that look alike come from different tables or passages of the source.

Key:
Tdp1 [1] = molecular target: T1, Tdp1 (Homo sapiens, UniProt Q9NUW8); experiment: Real-time oligonucleotide biosensor-based Tdp1 inhibition assay; format: biochemical
T1 construct: inferred from pET 16B vector and Ni-chelating resin; made in house; host or cells: Escherichia coli BL21(DE3)
T1 sequence (Q9NUW8 whole entry): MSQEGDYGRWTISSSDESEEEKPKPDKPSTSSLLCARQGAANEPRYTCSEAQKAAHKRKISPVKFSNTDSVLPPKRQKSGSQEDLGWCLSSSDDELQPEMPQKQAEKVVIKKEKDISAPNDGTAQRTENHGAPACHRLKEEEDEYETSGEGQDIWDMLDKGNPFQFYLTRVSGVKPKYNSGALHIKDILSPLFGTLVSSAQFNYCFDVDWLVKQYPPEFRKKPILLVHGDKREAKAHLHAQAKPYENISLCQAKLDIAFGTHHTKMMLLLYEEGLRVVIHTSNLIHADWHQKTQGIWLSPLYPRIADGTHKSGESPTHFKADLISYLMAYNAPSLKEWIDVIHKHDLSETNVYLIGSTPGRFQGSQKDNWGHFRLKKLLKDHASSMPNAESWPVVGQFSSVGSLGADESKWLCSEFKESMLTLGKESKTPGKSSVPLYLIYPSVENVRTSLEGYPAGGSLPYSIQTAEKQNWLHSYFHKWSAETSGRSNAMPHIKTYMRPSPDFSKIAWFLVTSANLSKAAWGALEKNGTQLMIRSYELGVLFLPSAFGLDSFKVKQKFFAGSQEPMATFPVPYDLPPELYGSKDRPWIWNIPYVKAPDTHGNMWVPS
Method: The inhibition potency of our synthesised compounds against Tdp1 was evaluated by using a real-time oligonucleotide biosensor-based assay. In this assay, Tdp1 catalyses the removal of fluorophore quenchers from the 3′-end of a modified DNA substrate. […] Hexadecameric oligonucleotide was selected as a Tdp1 substrate, as it contains 5(6)-carboxyfluorescein (FAM) at the 5′-end and fluorophore quencher BHQ1 (Black Hole Quencher-1) at the 3′-end. This approach was used to determine the inhibitory properties of all the chromenes.
The pET 16B-Tdp1 was kindly provided by Dr. K.W. Caldecott (University of Sussex, United Kingdom). Recombinant Tdp1 was expressed in Escherichia coli BL21(DE3) and was purified by chromatography on Ni-chelating resin and phosphocellulose P11, as described in [29].
Real-time Tdp1 activity measurements were carried out as described in [9]. In brief, Tdp1-biosensor (50 nM) was incubated in a buffer that contains 50 mM Tris-HCl pH 8.0, 50 mM NaCl, and 7 mM β-mercaptoethanol (200 μL). The mixture was then supplemented with purified Tdp1 (1.3 nM) and various concentrations of the inhibitor. Fluorescence measurements (Ex485/Em520 nm) were carried out during the linear phase of reaction (from 0 to 8 min) every 55 s. The reactions were incubated at a constant temperature of 26 °C using a POLARstar OPTIMA fluorimeter (BMG LABTECH). The influence of the compounds was evaluated by comparing the fluorescence increase rate in their presence to that of 1.5% DMSO control wells. The data were imported into the MARS Data Analysis 2.0 program (BMG LABTECH), and IC50 values were calculated by non-linear curve fitting.

[2] = molecular target: T2, human Tdp1 (residues 149-608) (Homo sapiens, UniProt Q9NUW8); experiment: Intrinsic protein fluorescence-based Tdp1 binding assay; settings: supplementary figure legends; Tdp1 10 μM, 20 mM Tris, 250 mM NaCl, pH 8, triplicate
T2 construct: human Tdp1 (residues 149-608); made in house; host or cells: Escherichia coli BL21(DE3)
T2 sequence (Q9NUW8 149-608): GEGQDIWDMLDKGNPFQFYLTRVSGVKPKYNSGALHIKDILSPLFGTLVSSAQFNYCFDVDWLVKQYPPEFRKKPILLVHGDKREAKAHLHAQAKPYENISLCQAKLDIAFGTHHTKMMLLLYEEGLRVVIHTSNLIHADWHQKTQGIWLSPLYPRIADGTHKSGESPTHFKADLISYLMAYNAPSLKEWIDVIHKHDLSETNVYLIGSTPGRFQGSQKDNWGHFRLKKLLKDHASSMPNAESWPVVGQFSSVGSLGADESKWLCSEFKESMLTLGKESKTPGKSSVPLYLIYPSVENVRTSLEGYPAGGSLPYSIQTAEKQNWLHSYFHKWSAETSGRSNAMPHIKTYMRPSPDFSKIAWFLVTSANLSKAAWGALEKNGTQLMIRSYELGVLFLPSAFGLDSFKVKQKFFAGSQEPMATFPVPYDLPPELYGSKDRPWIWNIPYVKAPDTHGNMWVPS
Method: In addition to the inhibition assay, the binding of our compounds to Tdp1 was also evaluated. An intrinsic protein fluorescence-based assay, which we have previously applied to study the binding of esters combining monoterpenoid and adamantane fragments, was applied. In agreement with the inhibition data, all our compounds were relatively strong binders to Tdp1, with dissociation constants (KD) in the low μM region (Table 1 and Supplementary Figures S1–S7). […] This is possibly due to the large hydrophobic surface of Tdp1. The slight discrepancy between the measured KD and IC50 values is likely due to these non-specific binding events.
Synthetic DNA encoding human Tdp1 (residues 149-608 [2]) was cloned into pET-28a(+) (GenScript), which was then transformed into Escherichia coli BL21(DE3) for recombinant protein production. Protein production was induced with 1 mM IPTG at 28 °C with overnight incubation. Tdp1 was purified using affinity and size exclusion chromatography. Fluorescence was measured using a PerkinElmer EnSpire Multimode Reader. Tdp1 concentration was 10 μM and compound concentrations were 1 μM, 2.5 μM, 5 μM, 10 μM, 15 μM, 20 μM, 30 μM, 50 μM, 100 μM, 200 μM, 350 μM, 500 μM, and 750 μM. Buffer was 20 mM Tris and 250 mM NaCl (pH 8). Excitation wavelength was 280 nm and intrinsic fluorescence was measured between 300 and 450 nm. Control experiments with Tdp1 or compound on its own were also conducted. Background fluorescence arising from the compounds was subtracted from the final spectrum. The total volume per well was 30 μL. Dissociation constant (KD) values were calculated using the following formula (1), which takes non-specific binding into account. I = Imax ×[LT]/KD+[LT] +Ns[LT]
I indicates changes in fluorescence intensity from the titrations, Imax indicates the maximum fluorescence intensity change, [LT] is the titrated ligand concentration, and Ns is the non-specific term. Non-linear curve fitting was conducted using SigmaPlot 13.0 (Systat Software, San Jose, CA, USA). Experiments were conducted in triplicate and the errors shown are standard derivations.

Tdp1 [3] = molecular target: T1, Tdp1; settings: Figure 1; cited from earlier work

IC50 (Tdp1 [1]; Table 1, (4R) diastereomer) | IC50 (Tdp1 [1]; Table 2) | Kd [2] | IC50 (Tdp1 [1]; Table 1, (4S) diastereomer) | SMILES | IC50 (Tdp1 [3])
> 15 µM | > 15 µM | 23.3 ± 7.4 µM | – | C[C@@H]1CC[C@@H]2[C@@H](C1)O[C@@H](c1ccc([N+](=O)[O-])s1)C[C@@]2(C)O [(4R)-8, (2R,4aR,7R,8aS)-4,7-Dimethyl-2-(5-nitrothiophen-2-yl)octahydro-2H-chromen-4-ols] | –
> 15 µM | > 15 µM | – | – | C[C@@H]1CC[C@@H]2[C@H](C1)O[C@@H](c1ccc(N)s1)C[C@@]2(C)O [(4R)-9, (2R,4R,4aR,7R,8aS)-4,7-Dimethyl-2-(5-aminothiophen-2-yl)octahydro-2H-chromen-4-ol] | –
2.9 ± 0.8 µM | – | – | – | CC(=O)Nc1ccc([C@H]2C[C@@](C)(O)[C@@H]3CC[C@@H](C)C[C@H]3O2)s1 [(4R)-10, N-(5-((2R,4R,4aR,7R,8aR)-4-Hydroxy-4,7-dimethyloctahydro-2H-chromen-2-yl)thiophen-2-yl)acetamide] | –
4 ± 0.4 µM | – | 19.8 ± 2.4 µM | – | C[C@@H]1CC[C@@H]2[C@@H](C1)O[C@@H](c1ccc(NC(=O)C(F)(F)F)s1)C[C@@]2(C)O [(4R)-11, 2,2,2-Trifluoro-N-(5-((2R,4R,4aR,7R,8aR)-4-hydroxy-4,7-dimethyloctahydro-2H-chromen-2-yl)thiophen-2-yl)acetamide] | –
3.3 ± 0.2 µM | – | – | – | C[C@@H]1CC[C@@H]2[C@@H](C1)O[C@@H](c1ccc(NC(=O)c3ccccc3)s1)C[C@@]2(C)O [(4R)-12, N-(5-((2R,4R,4aR,7R,8aR)-4-Hydroxy-4,7-dimethyloctahydro-2H-chromen-2-yl)thiophen-2-yl)benzamide] | –
2.8 ± 0.6 µM | – | 12.4 ± 7.5 µM | – | C[C@@H]1CC[C@@H]2[C@H](C1)O[C@@H](c1ccc(NC(=O)C34CC5CC(CC(C5)C3)C4)s1)C[C@@]2(C)O [(4R)-13, N-(5-((2R,4R,4aR,7R,8aS)-4-Hydroxy-4,7-dimethyloctahydro-2H-chromen-2-yl)thiophen-2-yl)adamantane-1-carboxamide] | –
– | > 15 µM | 30.6 ± 9.33 µM | > 15 µM | C[C@@H]1CC[C@@H]2[C@@H](C1)O[C@@H](c1ccc([N+](=O)[O-])s1)C[C@]2(C)O [(4S)-8, (2R,4aR,7R,8aS)-4,7-Dimethyl-2-(5-nitrothiophen-2-yl)octahydro-2H-chromen-4-ols] | –
– | > 15 µM | – | > 15 µM | C[C@@H]1CC[C@@H]2[C@H](C1)O[C@@H](c1ccc(N)s1)C[C@]2(C)O [(4S)-9, (2R,4S,4aR,7R,8aS)-4,7-dimethyl-2-(5-aminothiophen-2-yl)octahydro-2H-chromen-4-ol] | –
– | – | – | 5.8 ± 3 µM | CC(=O)Nc1ccc([C@H]2C[C@](C)(O)[C@@H]3CC[C@@H](C)C[C@H]3O2)s1 [(4S)-10, N-(5-((2R,4S,4aR,7R,8aR)-4-Hydroxy-4,7-dimethyloctahydro-2H-chromen-2-yl)thiophen-2-yl)acetamide] | –
– | – | 2 ± 1.2 µM | 1.4 ± 0.3 µM | C[C@@H]1CC[C@@H]2[C@@H](C1)O[C@@H](c1ccc(NC(=O)C(F)(F)F)s1)C[C@]2(C)O [(4S)-11, 2,2,2-Trifluoro-N-(5-((2R,4S,4aR,7R,8aR)-4-hydroxy-4,7-dimethyloctahydro-2H-chromen-2-yl)thiophen-2-yl)acetamide] | –
– | – | 24.5 ± 5.7 µM | 5 ± 1.5 µM | C[C@@H]1CC[C@@H]2[C@@H](C1)O[C@@H](c1ccc(NC(=O)c3ccccc3)s1)C[C@]2(C)O [(4S)-12, N-(5-((2R,4S,4aR,7R,8aR)-4-Hydroxy-4,7-dimethyloctahydro-2H-chromen-2-yl)thiophen-2-yl)benzamide] | –
– | – | 17.9 ± 3.4 µM | 1.24 ± 0.02 µM | C[C@@H]1CC[C@@H]2[C@H](C1)O[C@@H](c1ccc(NC(=O)C34CC5CC(CC(C5)C3)C4)s1)C[C@]2(C)O [(4S)-13, N-(5-((2R,4S,4aR,7R,8aS)-4-Hydroxy-4,7-dimethyloctahydro-2H-chromen-2-yl)thiophen-2-yl)adamantane-1-carboxamide] | –
– | – | – | – | O=c1cccc([C@H]2[C@H](c3ccc(O)cc3)[C@H](c3cccc(=O)o3)[C@H]2c2ccc(O)cc2)o1 [Compound 2, achyrodimer F] | 1 µM
– | – | – | – | CC1(C)[C@H]2CC=C(COc3ccc4c5c(c(=O)oc4c3)CCC5)[C@@H]1C2 [Compound 3] | 0.675 µM
